Source: ChEMBL document CHEMBL4619735, “Design, synthesis and anti-influenza A virus activity of novel 2,4-disubstituted quinazoline derivatives” (Bioorg Med Chem Lett, 2020)
Active and inactive are the calls of the source. The rule behind the calls is not given here.

Tested on: Influenza A virus
Assay: Antiviral activity against Influenza A virus A/WSN/33(H1N1) infected in human 293T cells assessed as inhibition of viral replication at 10 uM pretreated for 2 hrs followed by viral infection and measured after 24 hrs by Gaussia luciferase reporter gene assay
Type: functional, organism-based
Conditions: A/WSN/1933(H1N1), HEK-293T

Compound	inhibition
O=C(COc1nc(N2CCCC2)nc2ccccc12)Nc1nccs1	Active
O=C(COc1nc(N2CCCC2)nc2ccccc12)NC12CC3CC(CC(C3)C1)C2	inactive
O=C(COc1nc(N2CCCC2)nc2ccccc12)NC1CC1	inactive
O=C(NCCOc1nc(N2CCCC2)nc2ccccc12)c1ccccc1	Active
O=C(NCCOc1nc(N2CCCC2)nc2ccccc12)C1CCCCC1	inactive
NCCOc1nc(N2CCCC2)nc2ccccc12	inactive
O=C(NCCOc1nc(N2CCCC2)nc2ccccc12)C1CC1	Active
O=C(NCCOc1nc(N2CCc3ccccc3C2)nc2ccccc12)c1ccccc1	Active
CCOc1ccccc1CNC(=O)COc1nc(N2CCCC2)nc2ccccc12	Active
CC(=O)c1ccc(C(=O)NCCOc2nc(N3CCCC3)nc3ccccc23)cc1	inactive
O=C(COc1nc(N2CCCC2)nc2ccccc12)Nc1ccc2ccccc2c1	inactive

Tested on: Influenza A virus
Assay: Antiviral activity against Influenza A virus A/WSN/33(H1N1) infected in human 293T cells pretreated for 2 hrs followed by viral infection and measured after 24 hrs by Gaussia luciferase reporter gene assay
Type: functional, organism-based
Conditions: A/WSN/1933(H1N1), HEK-293T

Compound	IC50 [µM]
O=C(COc1nc(N2CCCC2)nc2ccccc12)Nc1nccs1	39.4
O=C(COc1nc(Cl)nc2ccccc12)NCc1ccccc1	26.5
CCOC(=O)COc1nc(N2CCCC2)nc2ccccc12	16.6
O=C(NCCOc1nc(Cl)nc2ccccc12)c1ccccc1	48
O=C(COc1nc(N2CCc3ccccc3C2)nc2ccccc12)NCc1ccccc1	17.7
O=C(O)COc1nc(N2CCCC2)nc2ccccc12	60.1
COc1ccc(OC(=O)NCCOc2nc(N3CCCC3)nc3ccccc23)cc1	55.3
NC(=O)c1ncn([C@@H]2O[C@H](CO)[C@@H](O)[C@H]2O)n1 [RIBAVIRIN]	15.4
O=C(NCCOc1nc(N2CCc3ccccc3C2)nc2ccccc12)c1ccccc1	4.19
O=C(NCCOc1nc(N2CCCC2)nc2ccccc12)c1cccs1	18.2
O=C(NCCOc1nc(N2CCCC2)nc2ccccc12)c1ccc(C(F)(F)F)cc1	8.64
CCOc1ccccc1CNC(=O)COc1nc(N2CCCC2)nc2ccccc12	17.7
CN(C)c1nc(OCC(=O)Nc2ccccc2)c2ccccc2n1	3.7

Tested on: Influenza A virus
Assay: Potency index, ratio of ribavirin IC50 to test compound IC50 for antiviral activity against Influenza A virus A/WSN/33(H1N1) infected in human 293T cells pretreated for 2 hrs followed by viral infection and measured after 24 hrs by Gaussia luciferase reporter gene assay
Type: functional, A/WSN/1933(H1N1), HEK-293T
Conditions: not given

Compound	Ratio IC50
CN(C)c1nc(OCC(=O)Nc2ccccc2)c2ccccc2n1	4.1
